From patent US10221186B2, “Spirocyclic heterocyclic compounds useful as HIV integrase inhibitors” (priority 2014, dated 2019)
Read-outs that look alike come from different tables or passages of the source.

Test system: HIV-1 (NL4-3 strain)
Experiment: Assay for inhibition of HIV replication (VIKING) in infected MT4-GFP cells
Assay type: cell-based
Conditions: infected cells at 48 h / 24 h
Protocol: MT4-GFP cells (250,000 cells/ml) were bulk-infected with HIV-1 (NL4-3 strain) at low multiplicity of infection (MOI) in RPMI+10% FBS for 24 hours. […] Test compounds were serial-diluted in DMSO on ECHO. The infected MT4-GFP cells were added to a 384-well poly-D-lysine coated black plate with clear bottom in which the diluted test compounds were placed. The cells were seeded at 8,000 cells per well and the final DMSO concentration was 0.4%. The infected cells (Green GFP cells) were quantified at both 24 and 48 hours post incubation using Acumen eX3. Viral reproductive ratio (R0) was determined using the number of infected cells at 48 hours divided by the number of infected cells at 24 hours. Percent viral growth inhibition was calculated by [1−(R−Rtripledrug)/(RDMSO−Rtripledrug)]*100.

[1] = Human immunodeficiency virus 1, NL43, MT4-GFP cells infected with HIV-1 NL4-3, 0% NHS (normal human serum), read-out: VIKING IP50 (nM) with 0% NHS
[2] = Human immunodeficiency virus 1, NL43, MT4-GFP cells infected with HIV-1 NL4-3, 100% NHS (normal human serum), read-out: VIKING IP50 (nM) with 100% NHS
[3] = MT4-GFP cells infected with HIV-1 NL4-3, 100% NHS (normal human serum), read-out: VIKING IP50 (nM) with 100% NHS
[4] = MT4-GFP cells infected with HIV-1 NL4-3, 0% NHS (normal human serum), read-out: VIKING IP50 (nM) with 0% NHS

Structure (SMILES)	IC50 [1] [nM]	IC50 [2] [nM]	IC50 [3] [nM]	IC50 [4] [nM]
CN1CC2(CCN(S(C)(=O)=O)C2)n2cc(C(=O)NCc3ccc(F)cc3F)c(=O)c(O)c2C1=O (single isomer, unassigned) [Compound 47]	6	78		
COCN1CC2(CCOC2)n2cc(C(=O)NCc3ccc(F)cc3F)c(=O)c(O)c2C1=O (stereo not shown) [Compound 18]	3		> 8400	
CC(=O)N1CCC2(CN(C)C(=O)c3c(O)c(=O)c(C(=O)NCc4ccc(F)cc4F)cn32)C1 (single isomer, unassigned) [Compound 45]		297		69
COCCCN1CC2(CCOC2)n2cc(C(=O)NCc3ccc(F)cc3F)c(=O)c(O)c2C1=O (single isomer, unassigned) [Compound 13]			36	2
CN1CC2(CCOCC2)n2cc(C(=O)NCc3ccc(F)cc3F)c(=O)c(O)c2C1=O [Compound 7]	6	113		
COCCN1CC2(CCOC2)n2cc(C(=O)NCc3ccc(F)c(Cl)c3F)c(=O)c(O)c2C1=O (stereo not shown) [Compound 25]	1	1730		
CC(C)OC(=O)OCOP(=O)(CCN1C[C@@]2(CCOC2)n2cc(C(=O)NCc3ccc(F)cc3F)c(=O)c(O)c2C1=O)OCOC(=O)OC(C)C (single isomer, unassigned) [Compound 54]	5	1600		
CN1CC2(CCOC2)n2cc(C(=O)NCc3ccc(F)cc3F)c(=O)c(O)c2C1=O (stereo not shown) [Compound 14]	3	209		
CN(C)N1CC2(CCOCC2)n2cc(C(=O)NCc3ccc(F)cc3F)c(=O)c(O)c2C1=O [Compound 2]	19	1510		
COCCCN1CC2(CCOC2)n2cc(C(=O)NCc3ccc(F)cc3F)c(=O)c(O)c2C1=O (single isomer, unassigned) [Compound 12]		47		5
COCCN1CC2(COC2)n2cc(C(=O)NCc3ccc(F)cc3F)c(=O)c(O)c2C1=O [Compound 3]	3	292		
CN1CC2(CCCOC2)n2cc(C(=O)NCc3ccc(F)cc3F)c(=O)c(O)c2C1=O (stereo not shown) [Compound 10]	3		75	
COCCN1CC2(CCOC2)n2cc(C(=O)NCc3ccc(F)cc3F)c(=O)c(O)c2C1=O (stereo not shown) [Compound 20]	2		337	
CN1CCC2(C1)CN(C)C(=O)c1c(O)c(=O)c(C(=O)NCc3ccc(F)cc3F)cn12 (single isomer, unassigned) [Compound 50]			74	1
CCN1C(=O)c2c(O)c(=O)c(C(=O)NCc3ccc(F)cc3F)cn2C2(CCOC2)C1OC (single isomer, unassigned) [Compound 36]			114	3
CCOCCN1CC2(CCOC2)n2cc(C(=O)NCc3ccc(F)cc3F)c(=O)c(O)c2C1=O (stereo not shown) [Compound 22]	2	40		
CCN1CC2(COC2)n2cc(C(=O)NCc3ccc(F)cc3F)c(=O)c(O)c2C1=O [Compound 5]	4	> 8400		
COCCN1CC2(CCOC2)n2cc(C(=O)NCc3ccc(F)c(Cl)c3F)c(=O)c(O)c2C1=O (stereo not shown) [Compound 26]			1140	1
COCCN1CC2(CCOC2)n2cc(C(=O)NCc3cccc(Cl)c3F)c(=O)c(O)c2C1=O (stereo not shown) [Compound 30]			417	1
COCCN1CC2(CCCOC2)n2cc(C(=O)NCc3ccc(F)cc3F)c(=O)c(O)c2C1=O (single isomer, unassigned) [Compound 8]	2		260	
COCCN1CC2(CCOCC2)n2cc(C(=O)NCc3ccc(F)cc3F)c(=O)c(O)c2C1=O [Compound 6]	6	646		
CN1CC2(CCNC2)n2cc(C(=O)NCc3ccc(F)cc3F)c(=O)c(O)c2C1=O (single isomer, unassigned) [Compound 51]			68	3
CCOCCN1CC2(CCOC2)n2cc(C(=O)NCc3ccc(F)cc3F)c(=O)c(O)c2C1=O (stereo not shown) [Compound 23]			27	1
CN1CC2(COC2)n2cc(C(=O)NCc3ccc(F)cc3F)c(=O)c(O)c2C1=O [Compound 4]	2	334		
CC(=O)N1CCC2(CN(C)C(=O)c3c(O)c(=O)c(C(=O)NCc4ccc(F)cc4F)cn32)C1 (single isomer, unassigned) [Compound 46]			259	19

Structure (SMILES)	IC50 [1] [nM]	IC50 [2] [nM]	IC50 [3] [nM]	IC50 [4] [nM]
COC1N(N(C)C)C(=O)c2c(O)c(=O)c(C(=O)NCc3ccc(F)cc3F)cn2C12COC2 (stereo not shown) [Compound 38]	7	235		
CCN1C(=O)c2c(O)c(=O)c(C(=O)NCc3ccc(F)cc3F)cn2C2(CCOC2)C1OC (single isomer, unassigned) [Compound 35]			88	1
COCCN1CC2(CCCOC2)n2cc(C(=O)NCc3ccc(F)cc3F)c(=O)c(O)c2C1=O (single isomer, unassigned) [Compound 9]			814	2
COCCN1CC2(CCOC2)n2cc(-c3nnc(Cc4ccc(F)cc4F)s3)c(=O)c(O)c2C1=O (stereo not shown) [Compound 40]			691	4
CN1CC2(CCNC2)n2cc(C(=O)NCc3ccc(F)cc3F)c(=O)c(O)c2C1=O (single isomer, unassigned) [Compound 52]			210	18
O=C(NCc1ccc(F)cc1F)c1cn2c(c(O)c1=O)C(=O)N(CCP(=O)(O)O)CC21CCOC1 (stereo not shown) [Compound 32]	293	873		
CN1CCC2(C1)CN(C)C(=O)c1c(O)c(=O)c(C(=O)NCc3ccc(F)cc3F)cn12 (single isomer, unassigned) [Compound 49]	2	90		
CCN1C(=O)c2c(O)c(=O)c(C(=O)NCc3ccc(F)cc3F)cn2C2(CCOC2)C1OC (single isomer, unassigned) [Compound 37]			663	3
COCCN1CC2(CCOC2)n2cc(-c3nnc(Cc4ccc(F)cc4F)s3)c(=O)c(O)c2C1=O (stereo not shown) [Compound 39]	2		291	
CCOP(=O)(CCN1CC2(CCOC2)n2cc(C(=O)NCc3ccc(F)cc3F)c(=O)c(O)c2C1=O)OCC (stereo not shown) [Compound 31]	17	232		
CN1CC2(CCOC2)n2cc(C(=O)NCc3ccc(F)cc3F)c(=O)c(O)c2C1=O (stereo not shown) [Compound 15]			108	4
CCN1C(=O)c2c(O)c(=O)c(C(=O)NCc3ccc(F)cc3F)cn2C2(COC2)C1OC (single isomer, unassigned) [Compound 33]	3		210	
CN1CC2(CCCOC2)n2cc(C(=O)NCc3ccc(F)cc3F)c(=O)c(O)c2C1=O (stereo not shown) [Compound 11]			442	3
CCN1CC2(CCOC2)n2cc(C(=O)NCc3ccc(F)cc3F)c(=O)c(O)c2C1=O (stereo not shown) [Compound 17]			> 8400	2
COCCN1CC2(CCOC2)n2cc(C(=O)NCc3cccc(Cl)c3F)c(=O)c(O)c2C1=O (stereo not shown) [Compound 29]	1		1140	
COCN1CC2(CCOC2)n2cc(C(=O)NCc3ccc(F)cc3F)c(=O)c(O)c2C1=O (stereo not shown) [Compound 19]			3420	2
CN1CC2(CCN(S(C)(=O)=O)C2)n2cc(C(=O)NCc3ccc(F)cc3F)c(=O)c(O)c2C1=O (single isomer, unassigned) [Compound 48]			112	10
O=C(NCc1ccc(F)cc1F)c1cn2c(c(O)c1=O)C(=O)N(CCO)CC21CCOC1 (stereo not shown) [Compound 24]	35	> 8000		
COCCN1CC2(CCOC2)n2cc(C(=O)NCc3ccc(F)cc3F)c(=O)c(O)c2C1=O (stereo not shown) [Compound 21]			129	3
CC(C)OC(=O)OCOP(=O)(CCN1C[C@]2(CCOC2)n2cc(C(=O)NCc3ccc(F)cc3F)c(=O)c(O)c2C1=O)OCOC(=O)OC(C)C (single isomer, unassigned) [Compound 58]	7	530		
CN(C)N1CC2(COC2)n2cc(C(=O)NCc3ccc(F)cc3F)c(=O)c(O)c2C1=O [Compound 1]	4	1280		
CCN1C(=O)c2c(O)c(=O)c(C(=O)NCc3ccc(F)cc3F)cn2C2(COC2)C1OC (single isomer, unassigned) [Compound 34]			4920	5
COCCN1CC2(CCOC2)n2cc(C(=O)NCc3ccc(F)c(Cl)c3)c(=O)c(O)c2C1=O (stereo not shown) [Compound 27]	3	3660		
COCCN1CC2(CCOC2)n2cc(C(=O)NCc3ccc(F)c(Cl)c3)c(=O)c(O)c2C1=O (stereo not shown) [Compound 28]			2770	2
CCN1CC2(CCOC2)n2cc(C(=O)NCc3ccc(F)cc3F)c(=O)c(O)c2C1=O (stereo not shown) [Compound 16]	2	4530		
